Data: patent publication US20110081315A1, “NOVEL MACROCYCLIC INHIBITORS OF HEPATITIS C VIRUS REPLICATION” (INTERMUNE, INC., priority 2009, published 2011)
Read-outs that look alike come from different tables or passages of the source.

Key:
NS3/NS4 complexes = NS3/NS4 complexes (Hepatitis C virus genotype 1a, UniProt P27958); test: NS3/NS4 inhibition assay (IC50); type: biochemical; details: NS3/NS4 activity; 23° C., 25 μM NS4A peptide
In short: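 Inhibitory concentrations against the NS3/NS4 complex are determined at 23° C. in pH 7.5 buffer (50 mM Tris-HCl) containing 25 μM NS4A peptide, 0.6 mM lauryldimethylamine oxide, 10 mM dithiothreitol and 15% glycerol. EC50 values derive from the hepatitis C replicon assay.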

hepatitis C replicon = hepatitis C replicon EC50 assay; type: cell-based; details: Hepatitis C virus
In short: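 Read-outs are IC50 for inhibition of the NS3/NS4 complex and EC50 in an HCV replicon system. Biochemical runs use 23° C. and a 50 mM Tris-HCl (pH 7.5) buffer with 15% glycerol, 10 mM DTT, 0.6 mM LDAO and 25 μM NS4A peptide.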

[1] = hepatitis C replicon, read-out: EC50

NS3/NS4 complexes, sequence (P27958 1027-1657, one chain of several): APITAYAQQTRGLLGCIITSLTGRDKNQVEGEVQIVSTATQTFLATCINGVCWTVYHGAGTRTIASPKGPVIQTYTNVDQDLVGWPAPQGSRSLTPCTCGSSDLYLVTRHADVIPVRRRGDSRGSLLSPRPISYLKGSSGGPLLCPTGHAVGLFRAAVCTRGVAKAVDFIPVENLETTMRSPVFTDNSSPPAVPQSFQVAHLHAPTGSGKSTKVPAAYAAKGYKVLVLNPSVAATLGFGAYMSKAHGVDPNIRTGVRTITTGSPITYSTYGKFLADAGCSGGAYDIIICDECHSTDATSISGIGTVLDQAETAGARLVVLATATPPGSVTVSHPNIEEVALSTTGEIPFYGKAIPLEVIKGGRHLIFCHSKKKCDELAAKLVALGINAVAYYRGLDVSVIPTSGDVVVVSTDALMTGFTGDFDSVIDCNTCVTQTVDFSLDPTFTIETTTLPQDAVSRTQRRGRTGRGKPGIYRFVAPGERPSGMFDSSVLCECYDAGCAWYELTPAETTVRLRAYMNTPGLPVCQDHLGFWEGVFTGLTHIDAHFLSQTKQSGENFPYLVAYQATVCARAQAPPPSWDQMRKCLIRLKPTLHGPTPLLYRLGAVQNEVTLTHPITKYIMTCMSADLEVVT

| Compound | IC50 (NS3/NS4 complexes) [nM] | EC50 (hepatitis C replicon) [nM] | EC50 (hepatitis C replicon; [1]) [nM] |
| --- | --- | --- | --- |
| CC(C)n1c(O[C@@H]2C[C@H]3C(=O)N[C@]4(C(=O)NS(=O)(=O)N(C)C)C[C@H]4/C=C\CCCCC[C@H](NC(=O)OC(C)(C)C)C(=O)N3C2)nc2c(C(=O)Nc3ccccc3)cccc21 [Compound 282] | < 10 | 10 to 100 |  |
| CC(C)n1c(O[C@@H]2C[C@H]3C(=O)N[C@]4(C(=O)NS(=O)(=O)N(C)C)C[C@H]4/C=C\CCCCC[C@H](NC(=O)OC(C)(C)C)C(=O)N3C2)nc2c(C(=O)NCc3ccccc3)cccc21 [Compound 283] | < 10 |  | < 10 |
| CC(C)n1c(O[C@@H]2C[C@H]3C(=O)N[C@]4(C(=O)NS(=O)(=O)N(C)C)C[C@H]4/C=C\CCCCC[C@H](NC(=O)OC(C)(C)C)C(=O)N3C2)nc2c(C(=O)NCCc3ccccc3)cccc21 [Compound 284] | < 10 | < 10 |  |
| COc1cccc2c1nc(O[C@@H]1C[C@H]3C(=O)N[C@]4(C(=O)NS(=O)(=O)C5(C)CC5)C[C@H]4/C=C\CCCCC[C@H](Nc4ccccc4)C(=O)N3C1)n2C(C)C [Compound 285] | < 10 |  | < 10 |
| COc1cccc2c1nc(O[C@@H]1C[C@H]3C(=O)N[C@]4(C(=O)NS(=O)(=O)N(C)C)C[C@H]4/C=C\CCCCC[C@H](NC(=O)OC(C)(C)C)C(=O)N3C1)n2C(C)C [Compound 286] | < 10 |  | < 10 |
| CC(C)n1c(O[C@@H]2C[C@H]3C(=O)N[C@]4(C(=O)NS(=O)(=O)C5(C)CC5)C[C@H]4/C=C\CCCCC[C@H](Nc4ccccc4)C(=O)N3C2)nc2c(NC(=O)Nc3ccccc3)cccc21 [Compound 287] | < 10 | 10 to 100 |  |
| CC(C)c1cccc2c1nc(O[C@@H]1C[C@H]3C(=O)N[C@]4(C(=O)NS(=O)(=O)N(C)C)C[C@H]4/C=C\CCCCC[C@H](NC(=O)OC(C)(C)C)C(=O)N3C1)n2C(C)C [Compound 288] | < 10 |  | < 10 |
| CC(C)c1ccc2c(c1)nc(O[C@@H]1C[C@H]3C(=O)N[C@]4(C(=O)NS(=O)(=O)N(C)C)C[C@H]4/C=C\CCCCC[C@H](NC(=O)OC(C)(C)C)C(=O)N3C1)n2C(C)C [Compound 289] | < 10 |  | 10 to 100 |
| CC(C)c1cccc2nc(O[C@@H]3C[C@H]4C(=O)N[C@]5(C(=O)NS(=O)(=O)N(C)C)C[C@H]5/C=C\CCCCC[C@H](NC(=O)OC(C)(C)C)C(=O)N4C3)n(C(C)C)c12 [Compound 290] | < 10 |  | 10 to 100 |
| CC(C)n1c(O[C@@H]2C[C@H]3C(=O)N[C@]4(C(=O)NS(=O)(=O)N(C)C)C[C@H]4/C=C\CCCCC[C@H](NC(=O)OC(C)(C)C)C(=O)N3C2)nc2c(C(F)(F)F)cccc21 [Compound 291] | < 10 |  | < 10 |
| CCc1csc(-c2cccc3c2nc(O[C@@H]2C[C@H]4C(=O)N[C@]5(C(=O)NS(=O)(=O)N(C)C)C[C@H]5/C=C\CCCCC[C@H](NC(=O)OC(C)(C)C)C(=O)N4C2)n3C(C)C)n1 [Compound 292] | < 10 |  | < 10 |
| CC(C)n1c(O[C@@H]2C[C@H]3C(=O)N[C@]4(C(=O)NS(=O)(=O)N(C)C)C[C@H]4/C=C\CCCCC[C@H](NC(=O)OC(C)(C)C)C(=O)N3C2)nc2c(-c3nc(C4CCCC4)cs3)cccc21 [Compound 293] | < 10 |  | 10 to 100 |
| CC(C)(C)OC(=O)N[C@H]1CCCCC/C=C\[C@@H]2C[C@@]2(C(=O)NS(=O)(=O)C2(C)CC2)NC(=O)[C@@H]2C[C@@H](Oc3ccc4c(c3)ncn4-c3ccccc3)CN2C1=O [Compound 294] | < 10 |  | > 100 |
| Cn1cnc2cc(O[C@@H]3C[C@H]4C(=O)N[C@]5(C(=O)NS(=O)(=O)C6(C)CC6)C[C@H]5/C=C\CCCCC[C@H](NC(=O)OC(C)(C)C)C(=O)N4C3)ccc21 [Compound 295] | < 10 |  | > 100 |
| Cn1cnc2ccc(O[C@@H]3C[C@H]4C(=O)N[C@]5(C(=O)NS(=O)(=O)C6(C)CC6)C[C@H]5/C=C\CCCCC[C@H](NC(=O)OC(C)(C)C)C(=O)N4C3)cc21 [Compound 296] | < 10 |  | > 100 |
| CC(C)n1cnc2cc(O[C@@H]3C[C@H]4C(=O)N[C@]5(C(=O)NS(=O)(=O)C6(C)CC6)C[C@H]5/C=C\CCCCC[C@H](NC(=O)OC(C)(C)C)C(=O)N4C3)ccc21 [Compound 297] | < 10 |  | > 100 |
| CCn1cnc2ccc(O[C@@H]3C[C@H]4C(=O)N[C@]5(C(=O)NS(=O)(=O)C6(C)CC6)C[C@H]5/C=C\CCCCC[C@H](NC(=O)OC(C)(C)C)C(=O)N4C3)cc21 [Compound 298] | < 10 |  | > 100 |
| CC(C)(C)OC(=O)N[C@H]1CCCCC/C=C\[C@@H]2C[C@@]2(C(=O)NS(=O)(=O)C2(C)CC2)NC(=O)[C@@H]2C[C@@H](Oc3ccc4ncn(-c5ccccc5)c4c3)CN2C1=O [Compound 299] | < 10 |  | 10 to 100 |
| CN(C)S(=O)(=O)NC(=O)[C@@]12C[C@H]1/C=C\CCCCC[C@H](NC(=O)OC(C)(C)C)C(=O)N1C[C@H](Oc3cnc4ccccc4n3)C[C@H]1C(=O)N2 [Compound 301] | < 10 |  | 10 to 100 |

| Compound | IC50 (NS3/NS4 complexes) [nM] | EC50 (hepatitis C replicon) [nM] | EC50 (hepatitis C replicon; [1]) [nM] |
| --- | --- | --- | --- |
| CCc1nc2ccccc2nc1O[C@@H]1C[C@H]2C(=O)N[C@]3(C(=O)NS(=O)(=O)N(C)C)C[C@H]3/C=C\CCCCC[C@H](NC(=O)OC(C)(C)C)C(=O)N2C1 [Compound 302] | < 10 |  | < 10 |
| CN(C)S(=O)(=O)NC(=O)[C@@]12C[C@H]1/C=C\CCCCC[C@H](NC(=O)OC(C)(C)C)C(=O)N1C[C@H](Oc3nc4ccccc4nc3C(F)(F)F)C[C@H]1C(=O)N2 [Compound 303] | < 10 |  | < 10 |
| CN(C)S(=O)(=O)NC(=O)[C@@]12C[C@H]1/C=C\CCCCC[C@H](NC(=O)OC(C)(C)C)C(=O)N1C[C@H](Oc3nc4ccccc4nc3C(C)(C)C)C[C@H]1C(=O)N2 [Compound 304] | < 10 |  | 10 to 100 |
| CC(C)c1nc2ccccc2nc1O[C@@H]1C[C@H]2C(=O)N[C@]3(C(=O)NS(=O)(=O)N(C)C)C[C@H]3/C=C\CCCCC[C@H](NC(=O)OC(C)(C)C)C(=O)N2C1 [Compound 305] | < 10 |  | < 10 |
| CN(C)S(=O)(=O)NC(=O)[C@@]12C[C@H]1/C=C\CCCCC[C@H](NC(=O)OC(C)(C)C)C(=O)N1C[C@H](Oc3nc4ccccc4nc3-c3ccccc3)C[C@H]1C(=O)N2 [Compound 306] | < 10 |  | 10 to 100 |
| CC(C)Cc1nc2ccccc2nc1O[C@@H]1C[C@H]2C(=O)N[C@]3(C(=O)NS(=O)(=O)N(C)C)C[C@H]3/C=C\CCCCC[C@H](NC(=O)OC(C)(C)C)C(=O)N2C1 [Compound 307] | < 10 |  | 10 to 100 |
| CN(C)S(=O)(=O)NC(=O)[C@@]12C[C@H]1/C=C\CCCCC[C@H](NC(=O)OC(C)(C)C)C(=O)N1C[C@H](Oc3nc4ccccc4nc3-c3ccc(F)cc3)C[C@H]1C(=O)N2 [Compound 308] | < 10 |  | 10 to 100 |
| CCOC(=O)c1nc2ccccc2nc1O[C@@H]1C[C@H]2C(=O)N[C@]3(C(=O)NS(=O)(=O)N(C)C)C[C@H]3/C=C\CCCCC[C@H](NC(=O)OC(C)(C)C)C(=O)N2C1 [Compound 309] | < 10 |  | 10 to 100 |
| Cc1nc2ccccc2nc1O[C@@H]1C[C@H]2C(=O)N[C@]3(C(=O)NS(=O)(=O)C4(C)CC4)C[C@H]3/C=C\CCCCC[C@H](Nc3ccccc3)C(=O)N2C1 [Compound 310] | < 10 |  | 10 to 100 |
| CC(C)c1nc2ccccc2nc1O[C@@H]1C[C@H]2C(=O)N[C@]3(C(=O)NS(=O)(=O)C4(C)CC4)C[C@H]3/C=C\CCCCC[C@H](Nc3ccccc3)C(=O)N2C1 [Compound 311] | < 10 |  | 10 to 100 |
| CCc1nc2ccccc2nc1O[C@@H]1C[C@H]2C(=O)N[C@]3(C(=O)NS(=O)(=O)C4(C)CC4)C[C@H]3/C=C\CCCCC[C@H](Nc3ccccc3)C(=O)N2C1 [Compound 312] | < 10 |  | 10 to 100 |
| CC(C)n1c(O[C@@H]2C[C@H]3C(=O)N[C@]4(C(=O)NS(=O)(=O)C5(C)CC5)C[C@H]4/C=C\CCCCC[C@H](Nc4ccc(C(F)(F)F)cc4)C(=O)N3C2)nc2cncnc21 [Compound 501] | < 10 |  | > 100 |
| CC(C)n1c(O[C@@H]2C[C@H]3C(=O)N[C@]4(C(=O)NS(=O)(=O)C5(C)CC5)C[C@H]4/C=C\CCCCC[C@H](Nc4ccc(F)c(C(F)(F)F)c4)C(=O)N3C2)nc2cncnc21 [Compound 502] | < 10 |  | 10 to 100 |
| CC(C)n1c(O[C@@H]2C[C@H]3C(=O)N[C@]4(C(=O)NS(=O)(=O)C5(C)CC5)C[C@H]4/C=C\CCCCC[C@H](Nc4cc(F)cc(C(F)(F)F)c4)C(=O)N3C2)nc2cncnc21 [Compound 503] | < 10 |  | 10 to 100 |
| CC(C)n1c(O[C@@H]2C[C@H]3C(=O)N[C@]4(C(=O)NS(=O)(=O)C5CC5)C[C@H]4/C=C\CCCCC[C@H](NC(=O)OC(C)(C)C)C(=O)N3C2)nc2cncnc21 [Compound 504] | < 10 |  | 10 to 100 |
| CC(C)n1cnc2cnc(O[C@@H]3C[C@H]4C(=O)N[C@]5(C(=O)NS(=O)(=O)C6CC6)C[C@H]5/C=C\CCCCC[C@H](NC(=O)OC(C)(C)C)C(=O)N4C3)nc21 [Compound 505] | < 10 |  | > 100 |
| CC(C)(C)OC(=O)N[C@H]1CCCCC/C=C\[C@@H]2C[C@@]2(C(=O)NS(=O)(=O)C2CC2)NC(=O)[C@@H]2C[C@@H](Oc3ncc4ncn(Cc5ccccc5)c4n3)CN2C1=O [Compound 506] | < 10 |  | > 100 |
| CN(C)S(=O)(=O)NC(=O)[C@@]12C[C@H]1/C=C\CCCCC[C@H](NC(=O)OC(C)(C)C)C(=O)N1C[C@H](Oc3ccc4c(ccn4C)c3)C[C@H]1C(=O)N2 [Compound 701] | < 10 |  | > 100 |
| Cn1ccc2ccc(O[C@@H]3C[C@H]4C(=O)N[C@]5(C(=O)NS(=O)(=O)C6(C)CC6)C[C@H]5/C=C\CCCCC[C@H](NC(=O)OC(C)(C)C)C(=O)N4C3)cc21 [Compound 702] | < 10 |  | 10 to 100 |
